Test results as given in publication PMC7356390, “Dehydrozingerone, a Curcumin Analog, as a Potential Anti-Prostate Cancer Inhibitor In Vitro and In Vivo” (Molecules, 2020).
Read-outs that look alike come from different tables or passages of the source.

How the values were obtained:
[1] = tested on: PLS10 cells; assay: WST-1 cell viability assay; format: cell-based; conditions: Rattus norvegicus; 48 h, WST-1 assay, mean ± S.D.; read-out: IC50, cell proliferation of PLS10 cells
Method: Figure 2 Cytotoxicity of Cur (a) and DZG (b) on PLS10 cells. Cells were treated with Cur (0–50 μM) or DZG (0–200 µM) and incubated for 48 h. Cell viability was measured by WST-1 assay. Data are represented as mean ± S.D. of three independent experiments. * p < 0.05, ** p < 0.01 and *** p < 0.001 vs. control (one-way ANOVA, Dunnett’s multiple comparisons test, tested groups vs. control group). PLS10 cells (2.0 × 10^3 cells per well) were plated in a 96-well plate for 24 h. Cur and DZG were dissolved in DMSO and diluted to the final concentration in the culture medium. After that, the culture medium containing Cur (0–50 µM) or DZG (0–200 µM) in 0.5% DMSO (vehicle control) were added into the cells. The cells were incubated in 5% CO2 at 37°C for a further 48 h, and cell viability was determined using the WST-1 colorimetric assay (Roche Diagnostics, Mannheim, Germany). In each experiment, determinations were carried out in triplicate.

[2] = In vivo pharmacokinetics and tissue distribution (HPLC); set-up: species or system male BALB/c mice; conditions: for concentration at 30 min: 30 min after 100 mg/kg i.p.; for concentration at 60 min: 60 min after 100 mg/kg i.p.; for Tmax: serum, ip, read-out: time to maximum serum concentration after i.p. administration
Method: Figure 5 Levels of serum Cur and DZG recorded in mice after receiving a single dose of Cur or DZG (100 mg/kg body weight) by intraperitoneal (i.p.) injection. Serum concentrations of Cur and DZG were determined by high-performance liquid chromatography (HPLC) using a reversed-phase C18 column (Waters). The mobile phase values were 52% acetonitrile and 48% citric buffer. Each point represents the mean ± S.E. of three or four mice.
A comparison of the pharmacokinetics between Cur and DZG was determined using seven-week-old male BALB/c mice. The designated 32 mice were randomly divided into 3 groups, identified as the control, Cur and DZG groups. Mice were i.p. injected with 50% DMSO in NSS (vehicle control), Cur or DZG at concentrations of 100 mg/kg of body weight for each mouse. The mice were euthanized, and blood from each mouse was collected at 0, 30, 60 and 180 min after injection. Lungs, liver and kidneys were removed and frozen for detection of the levels of concentrations of Cur and DZG.
The concentrations of Cur or DZG in the serum or organ tissues were determined using the HPLC method. The tissues were homogenized in 200 μl of 50% acetonitrile and vortexed for 5 min. Samples were centrifuged at 96.5 g at 4°C for 20 min. Fifty microliters of serum or tissue homogenate was mixed with 1.5-mg/mL trichloroacetic acid in 100 µl of acetonitrile. The substance was then centrifuged at 96.5 g at 4°C for 20 min. Sixty microliters of the supernatant was collected and subjected to HPLC using a reversed-phase C18 column (Waters Corporation, Milford, MA, USA). The mobile phase was composed of 52% acetonitrile and 48% citric buffer (1% w/v citric acid, pH 3.0), and the flow rate was set at 1 mL/min. The detection wavelength for Cur and DZG were 425 and 340 nm, respectively. Concentrations of Cur and DZG in the serum were calculated and compared to the standard curve (0–3200 ng/mL). The limits of quantification for Cur and DZG were 100 and 50 ng/mL, respectively. The extraction recovery from the plasma was approximately 90% for both Cur and DZG.

[3] = male, BALB/c, mouse, kidney, intraperitoneal, 100 mg/kg body weight, mean ± S.E., read-out: tissue concentration, Kidneys
[4] = male, BALB/c, mouse, liver, intraperitoneal, 100 mg/kg body weight, mean ± S.E., read-out: tissue concentration, Liver
[5] = male, BALB/c, mouse, lung, intraperitoneal, 100 mg/kg body weight, mean ± S.E., read-out: tissue concentration, Lung
[6] = male, BALB/c, mouse, single dose 100 mg/kg i.p., mice
[7] = single dose 100 mg/kg i.p., mice

| SMILES | IC50 [1] [µM] | concentration at 30 min [2, 3] [ng/g] | concentration at 60 min [2, 3] [ng/g] | concentration at 30 min [2, 4] [ng/g] | concentration at 30 min [2, 5] [ng/g] | Tmax [2, 6] [min] | maximum serum concentration [2, 7] [µg/mL] | time at detectable concentrations in the serum after i.p. injection [2, 7] | concentration at 180 min ([2]; male, BALB/c, mouse, kidney, intraperitoneal, 100 mg/kg body weight, 180 min after 100 mg/kg i.p., mean ± S.E., read-out: tissue concentration, Kidneys) [ng/g] | concentration at 60 min [2, 4] [ng/g] | concentration at 60 min [2, 5] [ng/g] | time of highest concentration in the kidneys after injection [2, 7] [h] |
| --- | --- | --- | --- | --- | --- | --- | --- | --- | --- | --- | --- | --- |
| COc1cc(/C=C/C(=O)CC(=O)/C=C/c2ccc(O)c(OC)c2)ccc1O [Cur, Curcumin] | 20.3 ± 0.58 | 1010 ± 550 | 530 ± 190 | 2600 ± 780 | 1150 ± 1300 | ≤ 30 | 2.28 ± 2.42 | ≤ 1 h | – | – | – | – |
| COc1cc(/C=C/C(C)=O)ccc1O [DZG, (E)-4-(4-hydroxy-3-methoxyphenyl)-but-3-en-2-one] | 153 ± 11.8 | 5920 ± 3800 | 9750 ± 4080 | 920 ± 670 | 1410 ± 740 | ≤ 30 | 4.87 ± 2.74 | up to 3 h | 860 ± 220 | 410 ± 110 | 720 ± 280 | 1 |
